Counter-ions that a name gives are not always drawn.
What was measured:
humanem Faktor Xa = target: T1, humanem Faktor Xa (Homo sapiens, UniProt P00742); test: Inhibition constant Ki, chromogenic substrate Chromozym X, photometric at 405 nm; assay type: biochemical; conditions: pH 7.5, 25°C, 0.1 M phosphate buffer, 0.2 M NaCl; read-out: Ki (fXa)
T1 construct: humanem Faktor Xa; purchased Boehringer Mannheim GmbH
Method: (§1) Die kinetischen Messungen wurden in 0.2 M Kochsalz und 0.5 % Polyethylenglycol 6000 enthaltendem 0.1 M Phosphatpuffer (Herstellung siehe unten) bei pH 7.5 und 25°C in Polystyrol-Halbmikroküvetten in einem Gesamtvolumen von 1 ml durchgeführt . Die Reaktionen wurden durch Zugabe von Enzym zu vorinkubierten Lösungen, die entweder Dimethylsulfoxid (Kontrolle) oder Lösungen der Testsubstanz in DMSO (Inhibitor-Stocklösungen: 10 mM in DMSO) enthielten, gestartet. Die Zunahme der Extinktion bei 405 nm als Folge der Freisetzung von 4-Nitroanilin aus dem Substrat wurde photometrisch über einen Zeitraum von 12 Minuten verfolgt. Im Abstand von 20 Sekunden wurden Meßwerte (Extinktion vs. Zeit) ermittelt und diese Daten per Computer gespeichert.
(§2) Zur Bestimmung der Inhibitionskonstanten Ki wurde wie folgt vorgegangen: Die Geschwindigkeiten V0 (Extinktionsänderung pro Sekunde; Messungen ohne Inhibitor) und Vi (Extinktionsänderung pro Sekunde; Messungen mit Inhibitor) wurden durch lineare Regression bestimmt, wobei nur die Meßpunkte berücksichtigt wurden, bei der sich die Substratkonzentration um weniger als 15% verringerte. Aus einer Meßreihe (konstante Inhibitorkonzentration, variable Substratkonzentrationen) bestimmte man KM und VMAX durch nichtlinearen Fit auf die Gleichung V =(Vmax *[S])/([S]+KM) [formula] […]

Humanes α-Thrombin = target: T2, Humanes α-Thrombin (Homo sapiens, UniProt P00734); test: Inhibition constant Ki, chromogenic substrate S-2238, photometric at 405 nm; assay type: biochemical; conditions: pH 7.5, 25°C, 0.1 M phosphate buffer, 0.2 M NaCl
T2 construct: Humanes α-Thrombin; purchased Sigma
Method: as §1, §2

[1] = target: T3, bovines pankreatisches Trypsin (Bos taurus, UniProt P00760); test: as above; assay type: biochemical, bovin; conditions: pH 7.5, 25°C, 0.1 M phosphate buffer, 0.2 M NaCl
T3 construct: bovines pankreatisches Trypsin (Sigma); purchased Sigma; host or cells: bovine pancreas
T3 sequence (P00760 24-246): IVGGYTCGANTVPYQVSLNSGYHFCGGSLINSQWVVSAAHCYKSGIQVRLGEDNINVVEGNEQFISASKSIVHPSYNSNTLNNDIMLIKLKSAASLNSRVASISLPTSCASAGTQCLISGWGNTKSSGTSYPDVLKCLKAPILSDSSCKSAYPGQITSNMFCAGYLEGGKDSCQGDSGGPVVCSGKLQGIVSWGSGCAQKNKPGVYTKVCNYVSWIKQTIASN
Method: as §1, §2

Citratplasma = test: Activated partial thromboplastin time (APTT) in citrated plasma, ball coagulometer; assay type: biochemical; conditions: time as difference to control (control ca. 28-35 s)
Method: (§3) Neun Teile frisches Blut gesunder Spender werden mit einem Teil Natriumcitratlösung (0.11 Mol/l) gemischt und bei ca. 3000 U/min 10 Minuten bei Raumtemperatur zentrifügiert. Das Plasma wird abpipettiert und kann bei Raumtemperatur ca. 8 h aufbewahrt werden.
100 µl Citratplasma und 100 µl APTT-Reagenz (Diagnostica Stago / Boehringer Mannheim GmbH; enthält Lyophilisat Cephalin mit mikrokristallinem Kieselguraktivator) werden zusammen mit 10 µl Dimethylsulfoxid (DMSO) oder 10 µl einer Lösung der Wirksubstanz in DMSO in einem Kugelkoagulometer (KC10 der Fa. Amelung) 3 Minuten bei 37°C inkubiert. Mit Zugabe von 100 µl 0.025 M Calciumchlorid-Lösung wird eine Stoppuhr gestartet und der Zeitpunkt bis zum Eintritt der Gerinnung bestimmt. Die APTT beträgt bei den Kontrollmessungen ca. 28 -35 Sekunden und wird durch Wirksubstanzen verlängert. Sofern bei den Messungen nach 5 Minuten keine Gerinnung eintrat, wurde der Versuch gestoppt (>300).
In Tabelle 1 sind die gemessenen APTT-Zeiten in Sekunden als Differenz zur Kontrolle angegeben. Die Konzentrationen der Wirksubstanzen betrugen im Endvolumen 1000 µM (APTT 1000), 100 µM (APTT 100), 10 µM (APTT 10), 1 µM (APTT 1).

Pferdethrombin = test: Thrombin time in citrated plasma with thrombin reagent, ball coagulometer; assay type: biochemical, Pferd; conditions: 500 µM final concentration; time as difference to control (control ca. 24 s)
Method: as §3
200 µl Citratplasma werden in einem Kugelkoagulometer (KC10 der Fa. Amelung) 2 Minuten bei 37°C inkubiert. Zu 190 µl vortemperiertem Thrombin-Reagenz (Boehringer Mannheim GmbH; enthält ca. 3 U/ml Pferdethrombin und 0.0125 M Ca^++ gibt man 10 µl Dimethylsulfoxid (DMSO) oder eine Lösung der Wirksubstanz in DMSO. Mit Zugabe dieser 200 µl Lösung zum Plasma wird eine Stoppuhr gestartet und der Zeitpunkt bis zum Eintritt der Gerinnung bestimmt. Die Thrombinzeit beträgt bei den Kontrollmessungen ca. 24 Sekunden und wird durch Wirksubstanzen verlängert. Sofern bei den Messungen nach 5 Minuten keine Gerinnung eintrat, wurde der Versuch gestoppt (>300).
In Tabelle 1 sind die gemessenen Thrombinzeiten in Sekunden als Differenz zur Kontrolle angegeben. Die Konzentrationen der Wirksubstanzen betrugen im Endvolumen 500 µM (TT 500).

T1 sequence (P00742 235-488 limits assumed): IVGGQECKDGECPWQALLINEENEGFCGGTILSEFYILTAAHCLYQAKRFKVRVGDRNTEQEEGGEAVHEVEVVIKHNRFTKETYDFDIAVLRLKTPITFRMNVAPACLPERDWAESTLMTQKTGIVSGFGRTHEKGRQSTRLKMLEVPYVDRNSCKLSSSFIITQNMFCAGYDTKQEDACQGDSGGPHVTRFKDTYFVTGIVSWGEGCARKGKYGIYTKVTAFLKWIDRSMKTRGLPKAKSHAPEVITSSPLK
T1 sequence (P00742 41-179 partner limits assumed): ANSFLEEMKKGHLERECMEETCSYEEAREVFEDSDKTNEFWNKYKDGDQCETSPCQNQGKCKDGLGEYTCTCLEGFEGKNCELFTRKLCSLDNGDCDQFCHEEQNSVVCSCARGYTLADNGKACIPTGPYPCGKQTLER

## N=C(N)N1CCC(Oc2ccc(S(=O)(=O)Nc3ccc4c(c3)CN(C(=N)N)CC4)cc2)CC1 [Beispiel 1, 7-[4-(1-Carbamimidoyl-piperidin-4-yloxy)-benzolsulfonylamino]-3,4-dihydro-1H-isochinolin-2-carboxamidin-dihydrochlorid]
Humanem Faktor Xa
  Ki: 10 nM
Humanes α-Thrombin
  Ki: 2000 nM
[1]
  Ki: 100 nM
Citratplasma; 1 µM final concentration
  APTT 1: 12 Sekunden
Citratplasma; 10 µM final concentration
  APTT 10: 50 Sekunden
Citratplasma; 100 µM final concentration
  APTT 100: 140 Sekunden
Citratplasma; 1000 µM final concentration, test stopped after 5 min (>300)
  APTT 1000: > 300 Sekunden
Pferdethrombin
  TT 500: 40 Sekunden

Reference: EP0937723A1, “Novel sulfonamides, process for their preparation and medicaments containing them” (Roche Diagnostics GmbH, priority 1998, dated 1999)
